Measurements: paper PMC6410202, “Dual Action of the PN159/KLAL/MAP Peptide: Increase of Drug Penetration across Caco-2 Intestinal Barrier Model by Modulation of Tight Junctions and Plasma Membrane Permeability” (Pharmaceutics, 2019)

Experiments:
Caco-2 cells = assay: Immunostaining of junctional proteins and F-actin; format: cell-based, human; details: 1 h
Experimental: Morphological changes in interepithelial junctions after treatment with different concentrations of CPPs (100 μM) and PN159 peptide (1, 3, 10, 30 and 100 μM) were followed by immunostaining for claudin-1 integral membrane tight junction protein, β-catenin and zonula occludens protein-1 (ZO-1) cytoplasmic linker proteins. F-actin was stained by fluorescently labeled phalloidin. Treatments lasted for 1 h. After peptide treatment cell layers were washed with PBS and fixed with a 1:1 mixture of ice cold acetone and methanol for 2 min. Cells were blocked with 3% bovine serum albumin in PBS and incubated with primary antibodies mouse anti-claudin-1 and -4, rabbit anti-ZO-1 and rabbit anti-β-catenin (Life Technologies, Carlsbad, CA, USA) overnight. Fluorescent Atto 647N-phalloidin (ATTO-TEC GmbH, Germany) lasted for 1 h. Incubation with Alexa Fluor-488-labeled anti-mouse and anti-rabbit secondary antibodies (Life Technologies, Invitrogen, USA) lasted for 1 h. Bis-benzimide dye (Hoechst 33342) was used to stain cell nuclei. After mounting (Fluoromount-G; Southern Biotech, Birmingham, AL, USA) the samples staining was visualized by a Leica TCS SP5 confocal laser scanning microscope (Leica Microsystems GmbH, Wetzlar, Germany) and Visitron spinning disk confocal system (Visitron Systems GmbH, Puchheim, Germany).

[1] = Circular dichroism spectroscopy of the peptide; format: physicochemical; details: CD
Experimental: Far-UV circular dichroism (CD) spectra of the peptides were recorded at 25°C temperature on a J-810 spectropolarimeter (JASCO International Co. Ltd., Tokyo, Japan). The CD spectra were measured between 260 nm and 185 nm with an optical pathlength of 1 mm, at a peptide concentration of 0.1 mg/mL in Milli-Q water diluted directly from powder. The bandwidth was 2 nm and data pitch 0.5 nm, the scan speed was set to 100 nm/min and the integration time was 1 sec. Ten spectra were accumulated and plotted. The data were analyzed by CDSSTR method. To test the thermostability of the peptide structure the CD spectra were recorded between 25 °C and 55 °C temperature with a ramp rate of 5 °C/min on a JASCO J-810 spectropolarimeter by using a Peltier sample holder. The CD spectra were measured immediately between 260 and 185 nm with an optical pathlength of 1 mm, the peptide concentration was 0.1 mg/mL in Milli-Q water. The bandwidth was 2 nm and data pitch 1 nm, the scan speed was set to 100 nm/min, and the integration time was 1 sec. Five spectra were accumulated and plotted.

Caco-2 cell layers = assay: Penetration of marker and drug molecules across Caco-2 cell layers (Papp A-B); details: PN159 10 and 30 μM, 1-h treatment
Experimental: In the permeability experiments inserts with Caco-2 cell layers grown for 3 weeks were transferred to 12-well plates containing 1.5 mL Ringer–Hepes buffer in the lower (basal or acceptor) compartments. In the upper or apical compartments culture medium was replaced by 0.5 mL buffer containing peptide solutions: PN159 peptide at 1, 3, 10 and 30 μM concentrations and CPPs at 100 μM concentration. […] The incubation with permeability markers in the presence of PN159 peptide lasted for 30 min. In case of CPPs the incubation time with fluorescein was 1-h. Samples were collected from both compartments and the concentrations of the marker molecules were determined by a fluorescence multi-well plate reader (Fluostar Optima; excitation wavelength: 485 nm, emission wavelength: 535 nm in the case of fluorescein and excitation wavelength: 584 nm, emission wavelength: 680 nm in the case of Evans-blue labeled albumin). Fluorescein isothiocyanate (FITC)-labelled dextran marker molecules (Table 1) were used at 1 mM concentrations, and fluorescence intensities of collected samples were measured using a Fluorolog FL3-22 (Horiba Jobin Yvon, Paris, France) spectrofluorometer using 492 nm excitation wavelength, 515 nm emission wavelength, and 0.5 s integration time. Drugs were used at 10 μM concentrations and samples were measured by HPLC as described below. The apparent permeability coefficients (Papp) were calculated as described previously. Briefly, cleared volume was calculated from the concentration difference of the tracer in the basal compartments (Δ[C]B) after 30 min and apical compartments at 0 h ([C]A), the volume of the basal compartment (VB; 1.5 mL) and the surface area available for permeability (A; 1.1 cm^2).
Analytical measurements were performed on a Merck-Hitachi LaChrom HPLC system equipped with an ultraviolet (UV) and fluorescence detector (Merck, Darmstadt, Germany). All reagents used were of analytical reagent grade. […] In both cases 10μL sample was injected into the chromatographic system.
The chromatographic column was maintained at 40 °C and the 5 μL sample was injected onto the column.
The column temperature was maintained at 40 °C and a 20 μL sample was injected onto the chromatographic system. […] UV detection was set at 228 nm.

Caco-2 epithelial cells = assay: Ethidium homodimer-1 staining, cell membrane integrity; format: cell-based, human; details: PN159 1 to 10 μM, 24-h treatments
Experimental: Besides the junctional effects, changes in the cell membrane integrity were also examined by ethidium homodimer-1 (856.77 Da) staining of Caco-2 epithelial cells after 24-h treatments in the concentration range of 1 to 10 μM.
Figure 7 (A) Fluorescent staining of juntional protein zonula occludens-1 and double staining of cell nuclei in Caco-2 cells after 1-h treatment with PN159 peptide. Green color: immunostaining for ZO-1. Red color: staining by ethidium homodimer-1 (EH-1), indicating increased membrane permeability.Blue color: staining of all cell nuclei by H33342. Bar = 10 µm. (B) Confocal microscopy images of living Caco-2 epithelial cells incubated with Bodipy FL labeled PN159 peptide in different concentrations for 5 min at 37°C. Green color: BodipyFL-PN159 peptide. Blue color: staining of cell nuclei. Bar = 10 µm.

In the case of `CC(C)C[C@H](NC(=O)[C@H](C)NC(=O)[C@H](CCCCN)NC(=O)[C@H](CC(C)C)NC(=O)[C@H](C)NC(=O)[C@H](CC(C)C)NC(=O)[C@H](CCCCN)NC(=O)[C@H](CC(C)C)NC(=O)[C@H](C)NC(=O)[C@H](CC(C)C)NC(=O)[C@@H](N)CCCCN)C(=O)N[C@@H](CCCCN)C(=O)N[C@@H](C)C(=O)N[C@@H](C)C(=O)N[C@@H](CC(C)C)C(=O)N[C@@H](CCCCN)C(=O)N[C@@H](CC(C)C)C(=O)N[C@@H](C)C(N)=O` [PN159], the “Junctional and cell morphology (claudin-1, ZO-1, β-catenin, F-actin)” value (Caco-2 cells; PN159 1 μM) is reported as “slight effect on cell morphology”, the “Junctional and cell morphology (claudin-1, ZO-1, β-catenin, F-actin)” value (Caco-2 cells; PN159 10 μM) is reported as “drastic change in actin cytoskeleton and epithelial junctional morphology” and the “Secondary structure, turns” value ([1]; 25 °C, 0.1 mg/mL in water) is reported as 24%. The “Secondary structure, unordered structure” value ([1]; 25 °C, 0.1 mg/mL in water) was 34%, the “Secondary structure, α-helix” value ([1]; 25 °C, 0.1 mg/mL in water) was 11% and the “Secondary structure, β-sheet” value ([1]; 25 °C, 0.1 mg/mL in water) was 31%. For the same molecule, the “Thermostability of secondary structure” value ([1]; between 25 and 55 °C) was “stable”, the “Permeability enhancement for fluorescein and albumin” value (Caco-2 cell layers) was “most effective permeability enhancer activity” and the “Plasma membrane entry of ethidium homodimer-1” value (Caco-2 epithelial cells) was “Only the highest PN159 concentration caused plasma membrane entry of the red fluorescent dye”.
